In US10435399B2, “HDAC6 inhibitory heterocyclic compound” (TAKEDA PHARMACEUTICAL COMPANY LIMITED, priority 2017, dated 2019):

Molecular target: T1, HDAC6 enzyme (Homo sapiens, UniProt Q9UBN7)
T1 construct: transducing full length HDAC6 gene into Sf-9 insect cells; GST; purchased SignalChem; host or cells: Sf-9 insect cells
T1 sequence (Q9UBN7 1-1215): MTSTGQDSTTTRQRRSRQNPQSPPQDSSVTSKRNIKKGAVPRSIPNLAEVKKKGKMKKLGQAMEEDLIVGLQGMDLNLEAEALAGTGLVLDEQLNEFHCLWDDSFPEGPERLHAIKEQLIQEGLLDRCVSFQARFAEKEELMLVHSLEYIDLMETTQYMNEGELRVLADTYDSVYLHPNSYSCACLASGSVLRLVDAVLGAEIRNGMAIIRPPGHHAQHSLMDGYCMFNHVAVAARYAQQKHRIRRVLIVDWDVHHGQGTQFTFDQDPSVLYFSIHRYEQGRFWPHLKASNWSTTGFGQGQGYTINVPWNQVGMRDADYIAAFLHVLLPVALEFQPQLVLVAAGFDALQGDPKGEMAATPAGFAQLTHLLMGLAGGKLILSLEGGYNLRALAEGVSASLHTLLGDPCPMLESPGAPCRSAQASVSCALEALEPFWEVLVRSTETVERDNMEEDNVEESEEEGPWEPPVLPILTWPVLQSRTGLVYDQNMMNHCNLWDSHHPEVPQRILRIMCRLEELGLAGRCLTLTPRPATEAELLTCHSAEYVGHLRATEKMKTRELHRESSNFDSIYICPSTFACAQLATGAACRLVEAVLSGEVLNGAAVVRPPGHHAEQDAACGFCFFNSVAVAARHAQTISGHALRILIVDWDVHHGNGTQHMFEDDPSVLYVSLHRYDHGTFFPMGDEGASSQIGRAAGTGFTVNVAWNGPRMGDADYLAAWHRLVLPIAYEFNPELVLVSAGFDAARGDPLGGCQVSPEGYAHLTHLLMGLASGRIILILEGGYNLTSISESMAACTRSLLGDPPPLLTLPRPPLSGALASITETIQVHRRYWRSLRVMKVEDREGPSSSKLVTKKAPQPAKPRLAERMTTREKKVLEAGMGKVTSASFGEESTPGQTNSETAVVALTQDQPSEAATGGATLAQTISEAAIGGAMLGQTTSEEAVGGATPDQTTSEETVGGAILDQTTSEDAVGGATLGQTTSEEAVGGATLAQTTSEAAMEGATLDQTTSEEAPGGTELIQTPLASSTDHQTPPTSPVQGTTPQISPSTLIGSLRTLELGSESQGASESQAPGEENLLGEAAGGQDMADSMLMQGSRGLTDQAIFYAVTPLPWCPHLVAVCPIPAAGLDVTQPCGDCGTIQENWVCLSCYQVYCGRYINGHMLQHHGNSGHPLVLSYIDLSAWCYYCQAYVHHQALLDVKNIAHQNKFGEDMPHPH
Test: HDAC6 enzyme inhibitory activity (HDAC-Glo I/II Assay kit)
Format: biochemical
Settings: 10 μM; wells without enzyme = 100% inhibition; read-out: HDAC6 inhibitory rate (%) (10 μM)
Summary of the method: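 Sf-9-derived GST-purified full-length HDAC6 + cpd, 60 min RT, 24 mM Tris pH 7.5/0.6 mM glutathione/0.01% Tween-20; add HDAC-Glo substrate-developer, 20 min RT; luminescence. No-enzyme = 100% inhibition.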

First: O=C1c2cc(-c3nnc(C(F)F)o3)ccc2CN1C1(Cc2ccccc2)CCOCC1 [Example 433, 2-(4-benzyl-tetrahydro-2H-pyran-4-yl)-6-(5-(difluoro-methyl)-1,3,4-oxadiazol-2-yl) isoindolin-1-one]
Second: O=C1c2cc(-c3nnc(C(F)F)o3)ccc2CN1c1ccnn1-c1ccccc1 [Example 435, 6-(5-(difluoro-methyl)-1,3,4-oxadiazol-2-yl)-2-(1-phenyl-1H-pyrazol-5-yl)isoindolin-1-one]
The inhibition at 10 µM of the first is higher: 101% for the first, 99% for the second.

Compared with `Cn1cc(-c2cn(C)nc2N2Cc3ccc(-c4nnc(C(F)F)o4)cc3C2=O)cn1` [Example 434, 6-(5-(difluoro-methyl)-1,3,4-oxadiazol-2-yl)-2-(1,1′-dimethyl-1H,1′H-4,4′-bipyrazol-3-yl) isoindolin-1-one], `COc1cccc(-c2cn(C)nc2N2Cc3ccc(-c4nnc(C(F)F)o4)cc3C2=O)c1` [Example 447, 6-(5-(difluoro-methyl)-1,3,4-oxadiazol-2-yl)-2-(4-(3-methoxy-phenyl)-1-methyl-1H-pyrazol-3-yl) isoindolin-1-one] is higher in inhibition at 10 µM: 98% for the first, 100% for the second.

`Cn1cc(-c2c(F)cccc2N2Cc3ccc(-c4nnc(C(F)F)o4)cc3C2=O)cn1` [Example 436, 6-(5-(difluoro-methyl)-1,3,4-oxadiazol-2-yl)-2-(3-fluoro-2-(1-methyl-1H-pyrazol-4-yl)phenyl)iso-indolin-1-one] and `O=C1c2cc(-c3nnc(C(F)F)o3)ccc2CN1c1ccc(F)cc1-n1cc(Cl)cn1` [Example 451, 2-(2-(4-chloro-1H-pyrazol-1-yl)-4-fluoro-phenyl)-6-(5-(difluoro-methyl)-1,3,4-oxadiazol-2-yl) isoindolin-1-one] are the same in inhibition at 10 µM: 98% for the first, 98% for the second.

Going from `O=C1c2cc(-c3nnc(C(F)F)o3)cnc2CN1Cc1ccccc1OC(F)(F)F` [Example 437, 3-(5-(difluoro-methyl)-1,3,4-oxadiazol-2-yl)-6-(2-(trifluoro-methoxy)benzyl)-6,7-dihydro-5H-pyrrolo [3,4-b]pyridin-5-one] to `CCOc1ccccc1CN1Cc2ncc(-c3nnc(C(F)F)o3)cc2C1=O` [Example 456, 3-(5-(difluoro-methyl)-1,3,4-oxadiazol-2-yl)-6-(2-ethoxy-benzyl)-6,7-dihydro-5H-pyrrolo[3,4-b] pyridin-5-one], the inhibition at 10 µM falls from 101% to 100%.

First: Cn1cccc1CN1Cc2ncc(-c3nnc(C(F)F)o3)cc2C1=O [Example 438, 3-(5-(difluoro-methyl)-1,3,4-oxadiazol-2-yl)-6-((1-methyl-1H-pyrrol-2-yl)methyl)-6,7-dihydro-5H-pyrrolo [3,4-b]pyridin-5-one]
Second: O=C1c2cc(-c3nnc(C(F)F)o3)cnc2CN1Cc1ccccc1Br [Example 441, 6-(2-bromo-benzyl)-3-(5-(difluoro-methyl)-1,3,4-oxadiazol-2-yl)-6,7-dihydro-5H-pyrrolo [3,4-b]pyridin-5-one]
The inhibition at 10 µM of the first is lower: 97% for the first, 99% for the second.

`O=C1CCCN1c1cc(F)ccc1N1Cc2ccc(-c3nnc(C(F)F)o3)cc2C1=O` [Example 439, 6-(5-(difluoro-methyl)-1,3,4-oxadiazol-2-yl)-2-(4-fluoro-2-(2-oxo-pyrrolidin-1-yl)phenyl) isoindolin-1-one] and `O=C1c2cc(-c3nnc(C(F)F)o3)ccc2CN1c1ccc(F)cc1-n1cc(F)cn1` [Example 452, 6-(5-(difluoromethyl)-1,3,4-oxadiazol-2-yl)-2-(4-fluoro-2-(4-fluoro-1H-pyrazol-1-yl)phenyl)isoindolin-1-one] are the same in inhibition at 10 µM: 99% for the first, 99% for the second.

Going from `O=C1c2cc(-c3nnc(C(F)F)o3)cnc2CN1Cc1nccs1` [Example 440, 3-(5-(difluoro-methyl)-1,3,4-oxadiazol-2-yl)-6-(1,3-thiazol-2-ylmethyl)-6,7-dihydro-5H-pyrrolo [3,4-b]pyridin-5-one] to `O=C1c2cc(-c3nnc(C(F)F)o3)cnc2CN1Cc1ccc(Cl)s1` [Example 454, 6-((5-chloro-2-thienyl)methyl)-3-(5-(difluoro-methyl)-1,3,4-oxadiazol-2-yl)-6,7-dihydro-5H-pyrrolo [3,4-b]pyridin-5-one], the inhibition at 10 µM rises from 97% to 101%.

Compared with `Cn1ccc(N2Cc3ccc(-c4nnc(C(F)F)o4)cc3C2=O)n1` [Example 442, 6-(5-(difluoro-methyl)-1,3,4-oxadiazol-2-yl)-2-(1-methyl-1H-pyrazol-3-yl)isoindolin-1-one], `Cn1cc(C2CCOCC2)c(N2Cc3ccc(-c4nnc(C(F)F)o4)cc3C2=O)n1` [Example 446, 6-(5-(difluoro-methyl)-1,3,4-oxadiazol-2-yl)-2-(1-methyl-4-(tetrahydro-2H-pyran-4-yl)-1H-pyrazol-3-yl) isoindolin-1-one] is higher in inhibition at 10 µM: 94% for the first, 100% for the second.

`N#Cc1ccc(N2Cc3ccc(-c4nnc(C(F)F)o4)cc3C2=O)c(-c2ccccc2)c1` [Example 443, 6-(6-(5-(difluoro-methyl)-1,3,4-oxadiazol-2-yl)-1-oxo-1,3-dihydro-2H-isoindol-2-yl) biphenyl-3-carbonitrile] and `N#Cc1ccc(N2Cc3ccc(-c4nnc(C(F)F)o4)cc3C2=O)c(-c2cccc(F)c2)c1` [Example 445, 6-(6-(5-(difluoro-methyl)-1,3,4-oxadiazol-2-yl)-1-oxo-1,3-dihydro-2H-isoindol-2-yl)-3′-fluoro-biphenyl-3-carbonitrile] are the same in inhibition at 10 µM: 100% for the first, 100% for the second.

`N#Cc1ccc(N2Cc3ccc(-c4nnc(C(F)F)o4)cc3C2=O)c(-c2cnn(C(F)F)c2)c1` [Example 444, 4-(6-(5-(difluoro-methyl)-1,3,4-oxadiazol-2-yl)-1-oxo-1,3-dihydro-2H-isoindol-2-yl)-3-(1-(difluoro-methyl)-1H-pyrazol-4-yl) benzonitrile] and `O=C1c2cc(-c3nnc(C(F)F)o3)ccc2CN1c1ccc(F)cc1-n1cc(C(F)(F)F)cn1` [Example 450, 6-(5-(difluoro-methyl)-1,3,4-oxadiazol-2-yl)-2-(4-fluoro-2-(4-(trifluoro-methyl)-1H-pyrazol-1-yl)phenyl) isoindolin-1-one] are the same in inhibition at 10 µM: 100% for the first, 100% for the second.

First: Cn1cc(C2=CCOCC2)c(N2Cc3ccc(-c4nnc(C(F)F)o4)cc3C2=O)n1 [Example 448, 6-(5-(difluoro-methyl)-1,3,4-oxadiazol-2-yl)-2-(4-(3,6-dihydro-2H-pyran-4-yl)-1-methyl-1H-pyrazol-3-yl) isoindolin-1-one]
Second: Cn1cc(-c2cc(F)cc(F)c2)c(N2Cc3ccc(-c4nnc(C(F)F)o4)cc3C2=O)n1 [Example 455, 6-(5-(difluoro-methyl)-1,3,4-oxadiazol-2-yl)-2-(4-(3,5-difluoro-phenyl)-1-methyl-1H-pyrazol-3-yl) isoindolin-1-one]
The inhibition at 10 µM of the first is lower: 100% for the first, 102% for the second.

First: CC(=O)N[C@@H]1CCCC[C@H]1N1Cc2ncc(-c3nnc(C(F)F)o3)cc2C1=O [Example 449, N-((1R,2R)-2-(3-(5-(difluoro-methyl)-1,3,4-oxadiazol-2-yl)-5-oxo-5,7-dihydro-6H-pyrrolo[3,4-b]pyridin-6-yl)cyclohexyl) acetamide]
Second: O=C1c2cc(-c3nnc(C(F)F)o3)cnc2CN1Cc1cc2ccccn2n1 [Example 457, 3-(5-(difluoro-methyl)-1,3,4-oxadiazol-2-yl)-6-(pyrazolo [1,5-a]pyridin-2-ylmethyl)-6,7-dihydro-5H-pyrrolo [3,4-b] pyridin-5-one]
The inhibition at 10 µM of the first is higher: 100% for the first, 97% for the second.

Going from `O=C1c2cc(-c3nnc(C(F)F)o3)ccc2CN1c1ccnn1-c1cccc(F)c1` [Example 453, 6-(5-(difluoro-methyl)-1,3,4-oxadiazol-2-yl)-2-(1-(3-fluoro-phenyl)-1H-pyrazol-5-yl) isoindolin-1-one] to `O=C1c2cc(-c3nnc(C(F)F)o3)cnc2CN1Cc1cnn2ccccc12` [Example 458, 3-(5-(difluoro-methyl)-1,3,4-oxadiazol-2-yl)-6-(pyrazolo [1,5-a]pyridin-3-ylmethyl)-6,7-dihydro-5H-pyrrolo [3,4-b] pyridin-5-one], the inhibition at 10 µM rises from 99% to 100%.
